# Marks after values point to notes of the source that are not given here.
# Assays:
# [1] = system: metatarsals of mouse fetus; assay: Organ culture of mouse fetus metatarsals, calcein staining; assay type: cell-based; conditions: 0.3 μM, 7 days organ culture, versus 0.3% DMSO negative control
# Description: Eagle's minimum essential mediums (MEM, Life Technologies Japan Corporation (Invitrogen)) was used to prepare the organ culture medium by adding 1% of penicillin/streptomycin (Life Technologies Japan Corporation (GIBCO)), 0.25% of fetal bovine serum (Sigma-Aldrich Co. LLC.), 50 μg/ml of ascorbic acid (Wako Pure Chemical Industries, Ltd.), 1 mM of β-glycerophosphoric acid (Sigma-Aldrich Co. LLC.), and 1 μg/ml of calcein (Sigma-Aldrich Co. LLC.). As a test substance, 0.3 μM of fargesin, or as a control, 0.3% of DMSO (final cone., Wako Pure Chemical Industries, Ltd.) was added to the organ culture medium. Fargesin was used the same solution prepared in Example 1 containing 0.3% DMSO as the final concentration.
# On 15 of pregnancy, mouse fetuses were took from pregnant female ICR mice (Japan SLC, Inc.) by Caesarean operation (E15.5) from the 15th days of a pregnant ICR female mouse by Caesarean section. Left and right metatarsals of the fetus were excised to be placed into the organ culture medium. The organ culture was performed under the conditions of 5% CO2 at 37 degree centigrade for 7 days to observe the effect on long axis direction.
# The long axis of the bone grows depending on that of epiphyseal cartilage existing between an epiphysis and a shaft. […] Then, calcification was occurred from the occification center (ossification). […]
# [2] = system: ovariectomized mouse (OVX mouse); assay: Bone formation in ovariectomized mouse (OVX mouse), dosing after bone resorption induction period, femur pQCT; assay type: in vivo; conditions: for Bone strength (polar coordinates torsion strength): compared to Control OVX group; for Bone density of cancellous bone, relative value / Bone density of cortical bone, relative value / Bone density of the whole bones, relative value: 5M Sham = 100; for Bone density of cancellous bone / Bone density of cortical bone / Bone thickness of cortical bone / Cross section area of cortical bone / Perimeter of cortical bone adventitia / Perimeter of cortical bone lining membrane / Bone density of the whole bones: OVX mice, 3 months dosing after 2-month induction; for Bone density of the whole bones: right femur, pQCT
# Description: Four-week-old female Slc; ddy mice (Japan SLC, Inc.) were purchased, and they were divided into 8 groups without acclimate keeping (6 mice per group). They were anesthetized by using 50 mg/kg of pentobarbital to be ovariectomized (it is referred to as “OVX” herein below) or to have Sham operation (it is referred to as “Sham” herein below) under the anesthesia which is given by intraperitoneal administration of 50 mg/kg of Somnopentyl (pentobarbital sodium).
# From the second day of the ovariectomy (or Sham operation), each group was maintained under the condition of 12 hour light/dark cycle, 23±3 degree centigrade as the room temperature, and humidity 55±5% for 2 months as the bone resorption induction period. The animal bedding was exchanged twice a week and all fresh bedding was used at all times. CRF-1 (Oriental Yeast Co., Ltd.) as the feed and deionized water as drinking water were freely given.
# After two month period from the test start, the bone resorption induction period, the test substance were given to each group at the amount shown in the following Table 7 for 3 month.
# Ninety % of MeOH fraction (Shin-i) obtained in Example 1 and Fargesin (may refer to “Far” thereafter) were respectively dissolved into TD solution at the concentration shown in Table 7, and then they were administrated per os.
# Human PTH (1-34) (herein below, it is sometimes referred to as “hPTH (1-34)”) were dissolved in distilled water at the concentration of 80 μg/kg/day, and it was administrated subcutaneously.
# After 3 month from the administration start, the mice belonging to all of the groups were weighed. They were anesthetized by using diethylether, and were collected their blood from their hearts, and then they were died. Then, organs such as the uterus, the white adipose tissue (WAT), the brown adipose tissue (BAT), the liver, the spleen, and both left and right lower extremities were removed. The left and right lower extremities were separated into the femurs and the tibias, and they were stored in 70% EtOH under the room temperature.
# The muscles were removed from the obtained femur (right), and then its bone density and the like were measured by using pQCT employed in Example 1 under the following conditions.
# Recognition of contour (CONTMODE): 2 (auto search of ROI)
# Recognition method of cancellous bone: Surface & Area
# Ration of cancellous bone area to all of the cross section areas: 35%
# CORTMODE used in CORTBD: 1* * Voxels not larger than the standard value for distinguishing the cortical bone from the cancellous bone (threshold: threshold) were omitted. Each tissue weight was also measured.
# TH value used in CORTBD: 690
# Among the all data of cancellous bone density obtained from pQCT, both of the highest and the lowest data were deleted to obtain the Median. As to the other parameters were treated as the same as this, the graph was made with N=6. Statistical analysis was performed by using the Dennett's two-sided t test.
structure (smiles),measurement,setting,value
"COc1ccc([C@@H]2OC[C@H]3[C@@H]2CO[C@@H]3c2ccc3c(c2)OCO3)cc1OC [fargesin, Fargesin]","extension of the metatarsal in long axis direction (calcified area, calcein fluorescence)",[1],extended longer vertically
same,Bone strength (polar coordinates torsion strength),[2]; 2 mg administration group p.o.,significantly increased
same,Bone strength (polar coordinates torsion strength),[2]; 40 mg administration group p.o.,significantly increased
same,"Bone density of cancellous bone, relative value",[2]; Far 2: 2 mg/kg/day p.o.,54.9
same,"Bone density of cortical bone, relative value",[2]; Far 2: 2 mg/kg/day p.o.,92.7
same,"Bone density of the whole bones, relative value",[2]; Far 2: 2 mg/kg/day p.o.,81.4
same,"Bone density of cancellous bone, relative value",[2]; Far 20: 20 mg/kg/day p.o.,58.5
same,"Bone density of cortical bone, relative value",[2]; Far 20: 20 mg/kg/day p.o.,92.9
same,"Bone density of the whole bones, relative value",[2]; Far 20: 20 mg/kg/day p.o.,83.1
same,"Bone density of cancellous bone, relative value",[2]; Far 40: 40 mg/kg/day p.o.,79.2
same,"Bone density of cortical bone, relative value",[2]; Far 40: 40 mg/kg/day p.o.,90.4
same,"Bone density of the whole bones, relative value",[2]; Far 40: 40 mg/kg/day p.o.,85.7
same,Bone density of cancellous bone,[2]; Far 2: 2 mg/kg/day p.o.,64.10 ± 25.48 mg/cm^2
same,Bone density of cortical bone,[2]; Far 2: 2 mg/kg/day p.o.,911.65 ± 30.15 mg/cm^2
same,Bone thickness of cortical bone,[2]; Far 2: 2 mg/kg/day p.o.,0.20 ± 0.03 mm
same,Cross section area of cortical bone,[2]; Far 2: 2 mg/kg/day p.o.,1.46 ± 0.23 mm^2
same,Perimeter of cortical bone adventitia,[2]; Far 2: 2 mg/kg/day p.o.,8.02 ± 0.26 mm
same,Perimeter of cortical bone lining membrane,[2]; Far 2: 2 mg/kg/day p.o.,6.79 ± 0.19 mm
same,Bone density of the whole bones,[2]; Far 2: 2 mg/kg/day p.o.,427.83 ± 36.00 mg/cm^2
same,Bone density of cancellous bone,[2]; Far 20: 20 mg/kg/day p.o.,68.22 ± 21.67 mg/cm^2
same,Bone density of cortical bone,[2]; Far 20: 20 mg/kg/day p.o.,914.57 ± 43.90 mg/cm^2
same,Bone thickness of cortical bone,[2]; Far 20: 20 mg/kg/day p.o.,0.20 ± 0.03 mm
same,Cross section area of cortical bone,[2]; Far 20: 20 mg/kg/day p.o.,1.48 ± 0.18 mm^2
same,Perimeter of cortical bone adventitia,[2]; Far 20: 20 mg/kg/day p.o.,8.04 ± 0.55 mm
same,Perimeter of cortical bone lining membrane,[2]; Far 20: 20 mg/kg/day p.o.,6.78 ± 0.68 mm
same,Bone density of the whole bones,[2]; Far 20: 20 mg/kg/day p.o.,437.00 ± 49.48 mg/cm^2
same,Bone density of cancellous bone,[2]; Far 40: 40 mg/kg/day p.o.,92.37 ± 41.29 mg/cm^2
same,Bone density of cortical bone,[2]; Far 40: 40 mg/kg/day p.o.,889.97 ± 23.31 mg/cm^2
same,Bone thickness of cortical bone,[2]; Far 40: 40 mg/kg/day p.o.,0.21 ± 0.02* mm
same,Cross section area of cortical bone,[2]; Far 40: 40 mg/kg/day p.o.,1.56 ± 0.19* mm^2
same,Perimeter of cortical bone adventitia,[2]; Far 40: 40 mg/kg/day p.o.,8.14 ± 0.39 mm
same,Perimeter of cortical bone lining membrane,[2]; Far 40: 40 mg/kg/day p.o.,6.83 ± 0.38 mm
same,Bone density of the whole bones,[2]; Far 40: 40 mg/kg/day p.o.,450.57 ± 33.72 mg/cm^2

# — patent US20130253048A1, “Pharmaceutical Composition for Promoting Osteogenesis Containing Axial-equatorial Aryl-oriented Furofuran-type Lignan, and Pharmaceutical Preparation, Functional Food Product, and Health Food Product Comprising Composition” (ERINA CO., INC., priority 2010, published 2013)
